Data set [1] is described as follows: Effect of time on stability of polymorphic form. The format is physicochemical. The protocol:
Polymorphic Form A of lacosamide was kept at 0° C. to 5° C. for 3 months.
Polymorphic Form B of lacosamide was kept at 0° C. to 5° C. for 7 months.

Data set [2] in a line: Solubility of polymorphic Form A and Form B in de-ionized water. The protocol:
Lacosamide polymorphic Forms A and B were tested for solubility studies by dissolving the Form A or Form B in de-ionized water.

Data set [3] is described as follows: Drying of Example 3 wet mass at rising temperatures, polymorph checked by XRD. Type of data set: physicochemical. Conditions: for Product characterized (based on XRD thereof) as: 6 hours. The protocol:
Lacosamide (20 g) was added to ethyl acetate (120 ml) at ambient temperature and heated at 75° C. to 80° C. This was cooled to ambient temperature in 1 hour and then filtered. […] The wet mass was dried at the following temperatures each for the specified time and analyzed.

Data on two compounds can be found in patent US20130085304A1, “PROCESSES FOR PREPARATION OF POLYMORPHIC FORMS OF LACOSAMIDE” (priority 2009, published 2013).

Take `COC[C@@H](NC(C)=O)C(=O)NCc1ccccc1` [Form A, (R)-2-acetamido-N-benzyl-3-methoxypropionamide]: the “Polymorphic form on reanalysis after storage” value in data set [1] (kept at 0° C. to 5° C. for 3 months) is listed as “characterized as Form A”. In data set [2], the “Solubility status in de-ionized water (1 in 45 parts)” value is “Sparingly soluble”. Besides, the “Product characterized (based on XRD thereof) as” value in data set [3] (Example 3 wet mass dried at 35-40 °C), in data set [3] (Example 3 wet mass dried at 40-45 °C), in data set [3] (Example 3 wet mass dried at 45-50 °C), in data set [3] (Example 3 wet mass dried at 50-55 °C), in data set [3] (Example 3 wet mass dried at 55-60 °C) and in data set [3] (Example 3 wet mass dried at 60-65 °C) was “Crystalline Form A” in each case. Also, the “Change in polymorph pattern on heating” value in data set [3] (heated for 36 hours in the temperature range of 35° C. to 65° C.) was “no change in polymorph pattern”.
For `COC[C@@H](NC(C)=O)C(=O)NCc1ccccc1` [Form B, (R)-2-acetamido-N-benzyl-3-methoxypropionamide], the “Polymorphic form on reanalysis after storage” value in data set [1] (kept at 0° C. to 5° C. for 7 months) was “characterized as Form B”.
